Our source for the IC50 and Papp A→B values is patent publication US11773071B2, “Benzothiazepine compounds and their use as bile acid modulators” (Albireo AB, priority 2019, dated 2023).

SMILES strings stand for the structures.

Data set [1] concerns the target T1, Human IBAT (Homo sapiens, UniProt Q12908).
T1 construct: expressed in transfected cells; Puromycin-selected
T1 sequence (Q12908 1-348): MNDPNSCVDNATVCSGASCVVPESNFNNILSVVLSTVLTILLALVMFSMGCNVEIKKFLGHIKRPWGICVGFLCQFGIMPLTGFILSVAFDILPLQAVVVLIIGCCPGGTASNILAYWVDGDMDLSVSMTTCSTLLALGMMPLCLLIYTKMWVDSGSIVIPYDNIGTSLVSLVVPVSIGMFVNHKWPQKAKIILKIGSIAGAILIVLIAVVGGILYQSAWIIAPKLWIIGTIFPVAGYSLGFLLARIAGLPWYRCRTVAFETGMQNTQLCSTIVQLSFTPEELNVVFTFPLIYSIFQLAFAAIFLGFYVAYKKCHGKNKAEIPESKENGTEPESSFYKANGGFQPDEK
Put plainly: IBAT (h/m) assay, human IBAT-overexpressing cells, 3H-taurocholic acid uptake. The class given is cell-based. Conditions: 0.25 μM 3H-taurocholic acid and 5 μM cold taurocholic acid, 20 minutes, read-out: hIBAT IC50. The method in brief:
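Human or mouse IBAT-overexpressing cells, seeded 48 h before the assay, were incubated 20 min at 37 °C with 0.25 μM 3H-taurocholic acid plus 5 μM cold taurocholic acid and inhibitor (10-point 3-fold series from 10 μM top, 0.2% DMSO final), in duplicate. After ice stop and washes with 1 mM cold taurocholate, uptake was read by scintillation counting.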

Data set [2] is described as follows: Bidirectional permeability assay (Caco-2 cells). Type of data set: in vitro ADME. The note with it: human, Caco-2, absorptive direction (A2B), 10 μM in FaSSIF buffer. On the procedure:
Bidirectional Permeability Assay (Caco-2 Cells)
Caco-2 cells (Evotec) were seeded at a density of 70,000 cells/well in Millicell® 24-well cell culture insert plates and maintained in an incubator (37° C., 5% CO2, 95% RH) for 21 days with media change on alternate days.
Stock solutions (10 mM) of the test compounds, atenolol (low permeability marker), propranolol (high permeability marker) and digoxin (substrate for P-gp transport pathway) were prepared in dimethylsulfoxide (DMSO). An intermediate stock solution (1 mM) was prepared by diluting 10 μL of 10 mM master stock solution with 90 μL of neat DMSO. A working stock solution (10 μM) was prepared by diluting 50 μL of 1 mM with 4950 μL of FaSSIF buffer. Post addition of compounds to the FaSSIF, samples were subjected to sonication for 2 hours, and centrifuged at 4000 RPM for 30 minutes at 37° C. The 4 mL of resultant supernatant was directly used in the assay. The final DMSO concentration in the transport experiments was 1%.
On the day of assay, Caco-2 monolayers were washed twice with transport buffer (HBSS, pH 7.4) and pre-incubated for 30 min (37° C., 5% CO2, 95% RH) in an incubator. The electrical resistance of the monolayers was measured with a Millicell®—ERS system. Monolayers with trans-epithelial electrical resistance (TEER) values greater than 350 ohm·cm^2 were selected for the assay.
The assay was conducted in absorptive direction (A2B) and secretory (B2A) directions. Transport experiments were initiated by addition of transport assay buffer (FaSSIF buffer prepared in HBSS) consisting of compounds to the donor compartment (apical chamber A-B; basolateral chamber B-A) in duplicate (n=2) wells. Drug free HBSS buffer (pH 7.4) containing 1% bovine serum albumin (BSA) was introduced to the receiver (A-B-basolateral; B-A-Apical) compartments. The volumes of apical and basolateral compartments were 0.4 and 0.8 mL, respectively. After adding dosing solution, plates were incubated in an incubator for 120 minutes at 37° C. After 120 minutes, donor and receiver samples were collected and matrix matched (1:1, 30 μL study sample+30 μL blank buffer) with the opposite buffer. Dosing samples matrix matched (1:1, 30 μL study sample+30 μL blank buffer) with the opposite buffer. Samples were processed by adding acetonitrile containing internal standard (60 μL study sample+200 μL acetonitrile containing internal standard—Tolbutamide, 500 ng/mL). Samples were vortexed and centrifuged at 4000 rpm for 10 minutes. The obtained supernatant (100 μL) was diluted with 100 μL of water and transferred to fresh 96 well plates. The concentration of compounds in the samples was analyzed by liquid chromatography tandem mass spectrometry (LC-MS/MS) method using discovery grade bio-analytical method, as applicable.
The mean apparent permeability (Papp,×10^−6 cm/sec) of the test compounds, atenolol, propranolol and digoxin were calculated as follows:
[formula] where dq/dt=rate of transport (rate of transport of compound in the receiver compartment), C0=initial concentration in the donor compartment, A=surface area of the effective filter membrane.
(In general: Caco-2 monolayers are a common model of the intestinal barrier.)

On to `CCCCC1(CC)CN(c2ccccc2)c2cc(N(C)C)c(OCCC(=O)O)cc2S(=O)(=O)C1` (single isomer, unassigned) [Example 17, 3-((3-butyl-7-(dimethylamino)-3-ethyl-1,1-dioxido-5-phenyl-2,3,4,5-tetrahydro-1,5-benzothiazepin-8-yl)oxy)propanoic acid], for which the IC50 – broadly, the midpoint of a concentration-inhibition curve – in data set [1] is 2 nM. Further, the Papp A→B (as a rule, how fast a substance crosses the layer from the apical side) at 120 min, 10 μM in data set [2] came to 16.5 ×10⁻⁶ cm/s.
`CCCCC1(CC)CN(c2ccccc2)c2cc(N(C)C)c(OCCC(=O)O)cc2S(=O)(=O)C1` (racemic) [Example 16, 3-((3-Butyl-7-(dimethylamino)-3-ethyl-1,1-dioxido-5-phenyl-2,3,4,5-tetrahydro-1,5-benzothiazepin-8-yl)oxy)propanoic acid]: the IC50 in data set [1] came to 3 nM. For the same molecule, the Papp A→B at 120 min, 10 μM in data set [2] was 17.6 ×10⁻⁶ cm/s.
